# Data from publication PMC12680861, “Comparative analysis of LJ-4378 and tirzepatide in mouse models of obesity and weight regain” (Archives of Pharmacal Research, 2025).
# Legend:
# Assay type in all cases: in vivo, C57BL/6 J male mice
# [1] = tested on: HFD-fed mice; experiment: Diet-induced obesity model: body weight, body composition, adipose weights, micro-CT; details: for fat mass reduction relative to HFD controls / reduction in total body weight compared to the HFD control group: LJ-4378 1 mg/kg/day I.P., TZP 10 nmol/kg/day S.C.
# Procedure: Animal experiments were conducted in accordance with the guidelines approved by the Institutional Animal Care and Use Committees (IACUC) of Seoul National University (SNU-230113–5-2, SNU-250410–1, and SNU-250811–5). C57BL/6 J male mice and Sprague–Dawley (SD) male rats were raised in a controlled animal facility with a temperature of 22 ± 1 °C and subjected to a 12-h light/12-h dark cycle. Mice were randomly assigned to experimental groups and fed either a normal chow diet (NCD, protein: 24.52% calories, carbohydrates: 63.07% calories, fat: 12.41% calories, 38,057, Purina Lab, Seongnam, Republic of Korea) or a high-fat diet (HFD, protein: 20% kcal, carbohydrate: 20% kcal, fat: 60% kcal, New Brunswick, D12492, Research Diets, NJ, USA) for the specified durations, according to group assignment. Both diet and water were provided ad libitum. SD rats (230–240 g) were provided standard rat chow and had free access to water. Prior to the experiment, the rats underwent a 12-h fasting period.
# (§1) To evaluate the anti-obesity effect in vivo, mice fed either NCD or HFD for 10 weeks were subsequently treated for up to 4 weeks. To control for injection route-related variables, all mice received both intraperitoneal (I.P.) and subcutaneous (S.C.) injections. The administration were as follows: LJ-4378 treated mice received LJ-4378, which was synthesized in our laboratory at > 95% purity (1 mg/kg/day, I.P.) (Hou et al. [2010]; Kim et al. [2022]) along with the vehicle for TZP (40 mM Tris–HCl, pH 8, S.C.); TZP treated mice received TZP (Samms et al. [2021]; Kim et al. [2022]) (LY3298176, MedChemExpress, Monmouth Junction, NJ, USA) (10 nmol/kg/day, S.C.) along with the vehicle for LJ-4378 (0.2% DMSO, I.P.); vehicle control mice received both vehicles (0.2% DMSO, I.P. and 40 mM Tris–HCl, pH 8, S.C.)
# (§2) Body composition and micro-CT analysis were performed after the treatment with vehicle, LJ-4378, or TZP for the indicated duration in HFD-fed mice and WR mice.
# (§3) A nuclear magnetic resonance (NMR) technology system with EchoMRI-700 (Echo Medical Systems, […]) was used to analyze body composition.
# (§4) To assess the abdominal fat volume, we employed the Quantum GX2 micro-CT imaging system (PerkinElmer, Waltham, MA, USA). Mice were anesthetized with isoflurane and positioned on the micro-CT bed for imaging of the abdominal region, defined from the proximal end of the L1 vertebra to the distal end of the L5 vertebra. Imaging was performed at 90 kV/88 µA with a field of view of 72 mm, a pixel size of 90 µm, and a 2-min acquisition time at standard resolution. Visceral, subcutaneous, and total abdominal fat volumes were quantified using AnalyzeDirect software (ver. 12.0, Overland Park, KS, USA).
# [2] = tested on: HFD-fed mice; experiment: Glucose tolerance test and fasting glucose in HFD-fed mice; details: for fasting glucose levels: 12-h fast; for glucose tolerance (intraperitoneal glucose tolerance test): 14 days treatment
# Procedure: The glucose tolerance test was conducted on mice fasted for 12 h with ad libitum access to water. Mice were intraperitoneally injected with 20% D-( +)-glucose (2 g/kg body weight, #49139, Sigma), and blood glucose levels were measured at each time point using a Gluco Doctor Top meter and strip (Allmedicus, South Korea).
# [3] = tested on: HFD-fed mice; experiment: Immunoblot of lipolytic, thermogenic and mitochondrial proteins in BAT and iWAT; serum FFA; details: for P-HSL, P-CREB, UCP1 and COXIV levels in BAT: western blot
# Procedure: as §1
# Serum free fatty acid (FFA) levels were quantification using HR Series NEFA-HR (2) (Color Reagent A (#999–34691), Solvent A (#995–34791), Color Reagent B (#991–34891), Solvent B (#993–35191), and NEFA Standard Solution (#276–76491) (FUJIFILM Wako Pure Chemicals, Osaka, Japan), following the manufacturer’s instruction.
# For protein extraction, we utilized PRO-RERP Protein Extraction Solution (17081, iNtRON Biotechnology, Gyeonggi-do, Korea), supplemented with […] […] Protein concentrations were determined using the Pierce BCA protein assay Kit (#23227, Thermo Fisher, Waltham, Massachusetts, USA) by measuring absorbance at 562 nm with a MultiSkan GO spectrophotometer (Thermo Fisher). The quantified proteins were loaded and separated in 12% SDS-PAGE gels and transferred to polyvinylidene difluoride (PVDF) membranes (Bio-Rad, Hercules, CA, USA). […] After secondary antibody incubation, membranes were washed 3 times with TBST and detected with the Fusion Solo chemiluminescence imaging system (Vilber Lourmat, France). EvolutionCapt (version 17.03) software and the ImageJ (National Institutes of Health, Bethesda, MD, USA) program were used for analysis and to quantify the protein level.
# [4] = tested on: WR mice; experiment: Weight rebound (WR) model: body weight, food intake, adiposity after treatment cessation; details: for body weight after treatment cessation: 4 weeks post-cessation on HFD; for food intake after withdrawal: 16 days after cessation; for body weight regained over 4 weeks as a percentage of the initial weight loss: WR groups, 4 weeks after 14-day treatment; for food intake during the 14-day treatment: measured every 2 days
# Source text: To assess post-treatment weight rebound (WR), the mice previously treated with vehicle, LJ-4378, or TZP were maintained on HFD for an additional 4 weeks following treatment cessation. Treatment protocols for the WR groups were identical to those of the HFD groups. In total, nine experimental groups were established: NCD + CTL, NCD + LJ, NCD + TZP; HFD + CTL, HFD + LJ, HFD + TZP; and WR + CTL, WR + LJ, WR + TZP. The volume of oxygen consumed (VO2), carbon dioxide produced (VCO2), respiratory exchange ratio (RER), energy expenditure, activity, and food intake were measured with PhenoMaster (TSE Systems, Bad Homburg, Germany). Indirect calorimetry was performed under controlled conditions, with a stable ambient temperature of 24 °C and a 12 h light/12-h dark cycle. Mice fed HFD were administered vehicle, LJ-4378, or TZP for 14 days, and the last 2 days of treatment were conducted during indirect calorimetry analysis. The WR model was examined by indirect calorimetry after 2 and 4 weeks of the weight regaining phase.
# Additionally, food consumption was measured every 2 days during the 14-day treatment period and for an additional 16 days post-administration.
# as §2, §3, §4
# [5] = 4 weeks after treatment cessation
Molecule,"fat ratio (% of the total body weight) ([1]; 4 weeks of LJ-4378, HFD-fed mice)",fat mass reduction relative to HFD controls ([1]; 14 days),reduction in total body weight compared to the HFD control group ([1]; 14 days),"iWAT and gWAT mass ([1]; HFD-fed mice, 14 days)","visceral and subcutaneous abdominal fat (micro-CT) ([1]; HFD-fed mice, 14 days)","reduction in body weight ([1]; four weeks of LJ-4378 administration, HFD-fed mice)",fasting glucose levels [2],glucose tolerance (intraperitoneal glucose tolerance test) [2],"UCP1 expression in BAT, LJ-4378 versus TZP [3]","P-HSL, P-CREB, UCP1 and COXIV levels in BAT [3]","gWAT and visceral abdominal fat, compared with the TZP group [4, 5]","whole-body fat ratio, LJ-4378 versus TZP [4, 5]",body weight after treatment cessation [4],food intake after withdrawal [4],body weight regained over 4 weeks as a percentage of the initial weight loss [4],food intake during the 14-day treatment [4],"fat ratio (% of the total body weight) ([1]; 2 weeks of TZP treatment, HFD-fed mice)","brown adipose tissue (BAT) mass ([1]; HFD-fed mice, 14 days)"
CCCCC#Cc1nc(N)c2ncn([C@@H]3SC[C@@H](O)[C@H]3O)c2n1 [LJ-4378],20.1%,30.7%,9.04%,significantly reduced,reduction,15.5%,significantly lower,markedly enhanced,more strongly induced,elevated levels,reduction,significantly lower,maintained a relatively low body weight,did not alter food intake during or after treatment,88%,did not alter food intake during or after treatment,–,–
"Tirzepatide [TZP, reference compound]",–,32.4%,18.63%,significantly reduced,reduction,–,significantly lower,markedly enhanced,–,elevated levels,–,–,rapid weight regain,sharp rebound in food consumption,127%,significantly suppressed food intake,27.4%,reduced
